{
  "source": "paper PMC3323469",
  "about": "“Comparative study of ^64Cu/NOTA-[D-Tyr^6,βAla^11,Thi^13,Nle^14]BBN(6-14) monomer and dimers for prostate cancer PET imaging” (EJNMMI Research, 2012)",
  "key": {"PC3 tumor": {"test_system": "PC3 tumor", "assay": "in vivo", "design": "species or system Balb/c nude mice", "conditions": "mouse", "method": "(§1) Tumor-bearing Balb/c nude mice were injected with 370 to 740 kBq (10 to 20 μCi; 100 μL) of ^64Cu/NOTA-monomer and ^64Cu/NOTA-dimer 2 via the caudal vein and sacrificed with CO2 at different periods of time after injection. Organs of interest were then collected and weighed. -Radioactivity was measured in a gamma counter. The blocking experiments were realized by co-injecting 0.1 μmol of non-radiolabeled peptide. The results were expressed as %ID/g with a minimum of 3 mice for each condition."}, "in vivo": {"assay": "in vivo", "design": "species or system Balb/c nude mice", "conditions": "Balb/c nude, mouse, total radioactivity; for tissue to tissue ratio at 0.5 h / tissue to tissue ratio at 2 h: iv", "method": "as §1"}, "[1]": {"type": "in vitro ADME", "conditions": "24 h", "method": "Plasma and in vivo stability studies were realized as previously described by our group. Briefly, after peptide reconstitution, studies were carried out by incubating the tracers in mouse plasma for a period of 24 h and by injecting around 15 to 25 MBq (400 to 650 μCi; 100 μL) of ^64Cu/peptide to female Balb/c mice; 3 mice per peptide. After 24 h, a portion of the incubation mixtures in plasma or blood samples taken from the back paw were quenched with equal amounts of MeCN, chilled (4°C) and centrifuged, and the supernatant was assayed by HPLC. The stability was also determined by radio-TLC directly from plasma and blood samples without further handling; free ^64Cu and purified radiolabeled peptides were used as standards. The radio-TLCs were eluted on C-18-coated plastic sheets with 0.1 M sodium citrate buffer at pH 5.5 using an instant imager system for the radio-detection."}},
  "note": "Numbered stars: 1 amine (or outer) side, 2 acyl side, 3 side chain; on linkers, the order of the positions; unused ones are H or OH. Bridge positions count the residues as written; N and C are the ends. Square brackets hold non-standard residues; d marks the D form. Peptide text beside a SMILES is read from it. I, II: the chains in the order shown. * marks the point of attachment. NOTA = O=C(O)CN1CCN(CC(=O)O)CCN(CC(=O)*)CC1; X1 = O=C(CCC(=O)[*:2])NCCOCCOCC(=O)[*:1]; 2Thi = N[C@@H](Cc1cccs1)C(=O)O; Nle = CCCC[C@H](N)C(=O)O; AEEA = NCCOCCOCC(=O)O; βAla = NCCC(=O)O",
  "data": [
    {"smiles": "CCCC[C@H](NC(=O)[C@H](Cc1cccs1)NC(=O)[C@H](Cc1c[nH]cn1)NC(=O)CCNC(=O)[C@@H](NC(=O)[C@H](C)NC(=O)[C@H](Cc1c[nH]c2ccccc12)NC(=O)[C@H](CCC(N)=O)NC(=O)[C@@H](Cc1ccc(O)cc1)NC(=O)CCC(=O)NCCOCCOCC(=O)N[C@@H](CCCCNC(=O)CN1CCN(CC(=O)O)CCN(CC(=O)O)CC1)C(=O)NCCOCCOCC(=O)NCC(=O)N[C@H](Cc1ccc(O)cc1)C(=O)N[C@@H](CCC(N)=O)C(=O)N[C@@H](Cc1c[nH]c2ccccc12)C(=O)N[C@@H](C)C(=O)N[C@H](C(=O)NCCC(=O)N[C@@H](Cc1c[nH]cn1)C(=O)N[C@@H](Cc1cccs1)C(=O)N[C@@H](CCCC)C(N)=O)C(C)C)C(C)C)C(N)=O", "note": "[^64Cu/NOTA-dimer 2, metal not drawn] (I: K(NOTA)[AEEA]G[dY]QWAV[βAla]H[2Thi][Nle]-NH2 / II: [dY]QWAV[βAla]H[2Thi][Nle]-NH2; linker I:N-II:N via X1)", "values": [
      {"measurement": "Biodistribution Adrenal", "setting": "PC3 tumor; Balb/c nude, 2 h", "value": "11.56 ± 4.91", "unit": "%ID/g"},
      {"measurement": "Biodistribution Blood", "setting": "PC3 tumor; Balb/c nude, 2 h", "value": "1.34 ± 0.15", "unit": "%ID/g"},
      {"measurement": "Biodistribution Fat", "setting": "PC3 tumor; Balb/c nude, 2 h", "value": "0.68 ± 0.61", "unit": "%ID/g"},
      {"measurement": "Biodistribution Lungs", "setting": "PC3 tumor; Balb/c nude, 2 h", "value": "5.07 ± 1.58", "unit": "%ID/g"},
      {"measurement": "Biodistribution Pancreas", "setting": "PC3 tumor; Balb/c nude, 2 h", "value": "13.35 ± 7.38", "unit": "%ID/g"},
      {"measurement": "Biodistribution Plasma", "setting": "PC3 tumor; Balb/c nude, 2 h", "value": "2.45 ± 0.27", "unit": "%ID/g"},
      {"measurement": "Tumor/pancreas ratio", "setting": "PC3 tumor; Balb/c nude, iv, 2 h", "value": "0.36 ± 0.09"},
      {"measurement": "tissue to tissue ratio at 0.5 h", "setting": "in vivo; Tumor/blood ratio", "value": "1.39 ± 0.3"},
      {"measurement": "tissue to tissue ratio at 2 h", "setting": "in vivo; Tumor/blood ratio", "value": "4.09 ± 1.79"},
      {"measurement": "tissue to tissue ratio at 0.5 h", "setting": "in vivo; Tumor/kidney ratio", "value": "0.28 ± 0.09"},
      {"measurement": "tissue to tissue ratio at 2 h", "setting": "in vivo; Tumor/kidney ratio", "value": "0.22 ± 0.11"},
      {"measurement": "tissue to tissue ratio at 0.5 h", "setting": "in vivo; Tumor/liver ratio", "value": "0.1 ± 0.01"},
      {"measurement": "tissue to tissue ratio at 2 h", "setting": "in vivo; Tumor/liver ratio", "value": "0.22 ± 0.07"},
      {"measurement": "tissue to tissue ratio at 0.5 h", "setting": "in vivo; Tumor/muscle ratio", "value": "3.95 ± 1.98"},
      {"measurement": "tissue to tissue ratio at 2 h", "setting": "in vivo; Tumor/muscle ratio", "value": "4.46 ± 1.86"},
      {"measurement": "tissue to tissue ratio at 0.5 h", "setting": "in vivo; Tumor/pancreas ratio", "value": "0.89 ± 0.11"},
      {"measurement": "tissue uptake at 0.5 h", "setting": "in vivo; Biodistribution Adrenal", "value": "9.23 ± 5.01", "unit": "%ID/g"},
      {"measurement": "tissue uptake at 0.5 h", "setting": "in vivo; Biodistribution Blood", "value": "3.13 ± 0.67", "unit": "%ID/g"},
      {"measurement": "tissue uptake at 0.5 h", "setting": "in vivo; Biodistribution Bone", "value": "0.78 ± 0.21", "unit": "%ID/g"},
      {"measurement": "tissue uptake at 2 h", "setting": "in vivo; Biodistribution Bone", "value": "0.83 ± 0.19", "unit": "%ID/g"},
      {"measurement": "tissue uptake at 0.5 h", "setting": "in vivo; Biodistribution Brain", "value": "0.38 ± 0.06", "unit": "%ID/g"},
      {"measurement": "tissue uptake at 2 h", "setting": "in vivo; Biodistribution Brain", "value": "0.22 ± 0.05", "unit": "%ID/g"},
      {"measurement": "tissue uptake at 0.5 h", "setting": "in vivo; Biodistribution Fat", "value": "1.86 ± 0.81", "unit": "%ID/g"},
      {"measurement": "tissue uptake at 0.5 h", "setting": "in vivo; Biodistribution Heart", "value": "4.42 ± 1.59", "unit": "%ID/g"},
      {"measurement": "tissue uptake at 2 h", "setting": "in vivo; Biodistribution Heart", "value": "2.68 ± 0.13", "unit": "%ID/g"},
      {"measurement": "tissue uptake at 0.5 h", "setting": "in vivo; Biodistribution Kidney", "value": "17 ± 6.24", "unit": "%ID/g"},
      {"measurement": "tissue uptake at 2 h", "setting": "in vivo; Biodistribution Kidney", "value": "26.4 ± 8.13", "unit": "%ID/g"},
      {"measurement": "tissue uptake at 0.5 h", "setting": "in vivo; Biodistribution Liver", "value": "41.8 ± 5.58", "unit": "%ID/g"},
      {"measurement": "tissue uptake at 2 h", "setting": "in vivo; Biodistribution Liver", "value": "23.1 ± 2.36", "unit": "%ID/g"},
      {"measurement": "tissue uptake at 0.5 h", "setting": "in vivo; Biodistribution Lungs", "value": "7.22 ± 2.73", "unit": "%ID/g"},
      {"measurement": "tissue uptake at 0.5 h", "setting": "in vivo; Biodistribution Muscle", "value": "1.59 ± 1.16", "unit": "%ID/g"},
      {"measurement": "tissue uptake at 2 h", "setting": "in vivo; Biodistribution Muscle", "value": "1.13 ± 0.62", "unit": "%ID/g"},
      {"measurement": "tissue uptake at 0.5 h", "setting": "in vivo; Biodistribution Pancreas", "value": "4.6 ± 0.57", "unit": "%ID/g"},
      {"measurement": "tissue uptake at 0.5 h", "setting": "in vivo; Biodistribution Plasma", "value": "5.27 ± 1.27", "unit": "%ID/g"},
      {"measurement": "tissue uptake at 0.5 h", "setting": "in vivo; Biodistribution Spleen", "value": "5.31 ± 1.43", "unit": "%ID/g"},
      {"measurement": "tissue uptake at 2 h", "setting": "in vivo; Biodistribution Spleen", "value": "5.5 ± 2.61", "unit": "%ID/g"},
      {"measurement": "tissue uptake at 0.5 h", "setting": "in vivo; Biodistribution Tumor", "value": "3.95 ± 0.26", "unit": "%ID/g"},
      {"measurement": "tissue uptake at 2 h", "setting": "in vivo; Biodistribution Tumor", "value": "6.28 ± 2.87", "unit": "%ID/g"},
      {"measurement": "Stability in mouse plasma", "setting": "[1]", "value": "stable"}
    ]},
    {"smiles": "CCCC[C@H](NC(=O)[C@H](Cc1cccs1)NC(=O)[C@H](Cc1c[nH]cn1)NC(=O)CCNC(=O)[C@@H](NC(=O)[C@H](C)NC(=O)[C@H](Cc1c[nH]c2ccccc12)NC(=O)[C@H](CCC(N)=O)NC(=O)[C@@H](Cc1ccc(O)cc1)NC(=O)COCCOCCNC(=O)CN1CCN(CC(=O)O)CCN(CC(=O)O)CC1)C(C)C)C(N)=O", "note": "[^64Cu/NOTA-monomer, metal not drawn] ({NOTA-AEEA}-[dY]QWAV[βAla]H[2Thi][Nle]-NH2)", "values": [
      {"measurement": "Biodistribution Adrenal", "setting": "PC3 tumor; Balb/c nude, 0.5 h", "value": "4.29 ± 1.13", "unit": "%ID/g"},
      {"measurement": "Biodistribution Blood", "setting": "PC3 tumor; Balb/c nude, 0.5 h", "value": "1.35 ± 0.47", "unit": "%ID/g"},
      {"measurement": "Biodistribution Bone", "setting": "PC3 tumor; Balb/c nude, 0.5 h", "value": "0.43 ± 0.46", "unit": "%ID/g"},
      {"measurement": "Biodistribution Brain", "setting": "PC3 tumor; Balb/c nude, 0.5 h", "value": "0.08 ± 0.07", "unit": "%ID/g"},
      {"measurement": "Biodistribution Fat", "setting": "PC3 tumor; Balb/c nude, 0.5 h", "value": "0.65 ± 0.54", "unit": "%ID/g"},
      {"measurement": "Biodistribution Heart", "setting": "PC3 tumor; Balb/c nude, 0.5 h", "value": "1.05 ± 0.91", "unit": "%ID/g"},
      {"measurement": "Biodistribution Kidney", "setting": "PC3 tumor; Balb/c nude, 0.5 h", "value": "10.42 ± 1.29", "unit": "%ID/g"},
      {"measurement": "Biodistribution Lungs", "setting": "PC3 tumor; Balb/c nude, 0.5 h", "value": "1.77 ± 1.28", "unit": "%ID/g"},
      {"measurement": "Biodistribution Muscle", "setting": "PC3 tumor; Balb/c nude, 0.5 h", "value": "0.40 ± 0.33", "unit": "%ID/g"},
      {"measurement": "Biodistribution Plasma", "setting": "PC3 tumor; Balb/c nude, 0.5 h", "value": "2.48 ± 0.63", "unit": "%ID/g"},
      {"measurement": "Biodistribution Spleen", "setting": "PC3 tumor; Balb/c nude, 0.5 h", "value": "1.63 ± 1.82", "unit": "%ID/g"},
      {"measurement": "Biodistribution Tumor", "setting": "PC3 tumor; Balb/c nude, 0.5 h", "value": "1.79 ± 0.46", "unit": "%ID/g"},
      {"measurement": "Tumor/kidney ratio", "setting": "PC3 tumor; Balb/c nude, iv, 0.5 h", "value": "0.17 ± 0.04"},
      {"measurement": "Tumor/liver ratio", "setting": "PC3 tumor; Balb/c nude, iv, 0.5 h", "value": "2.07 ± 1.13"},
      {"measurement": "Tumor/muscle ratio", "setting": "PC3 tumor; Balb/c nude, iv, 0.5 h", "value": "7.42 ± 3.17"},
      {"measurement": "Tumor/pancreas ratio", "setting": "PC3 tumor; Balb/c nude, iv, 0.5 h", "value": "0.44 ± 0.17"},
      {"measurement": "Tumor/muscle ratio", "setting": "PC3 tumor", "value": "7.42 ± 0.41"},
      {"measurement": "tissue to tissue ratio at 0.5 h", "setting": "in vivo; Tumor/blood ratio", "value": "1.49 ± 0.41"},
      {"measurement": "tissue uptake at 0.5 h", "setting": "in vivo; Biodistribution Liver", "value": "5.38 ± 8.12", "unit": "%ID/g"},
      {"measurement": "tissue uptake at 0.5 h", "setting": "in vivo; Biodistribution Pancreas", "value": "5.1 ± 2.5", "unit": "%ID/g"},
      {"measurement": "Stability in mouse plasma", "setting": "[1]", "value": "stable"}
    ]}
  ]
}
